Test results taken from ChEMBL document CHEMBL1201862, “PubChem BioAssay data set” (2004).
The source made the active and inactive calls.

What was measured:
[1] = target: T1, Sentrin-specific protease 7 (Homo sapiens, UniProt Q9BQF6); format: functional;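 further: Luminescence-based dose-response confirmation of ultra-high-throughput screening hits, measuring inhibition of SENP7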
T1 sequence (Q9BQF6 whole entry): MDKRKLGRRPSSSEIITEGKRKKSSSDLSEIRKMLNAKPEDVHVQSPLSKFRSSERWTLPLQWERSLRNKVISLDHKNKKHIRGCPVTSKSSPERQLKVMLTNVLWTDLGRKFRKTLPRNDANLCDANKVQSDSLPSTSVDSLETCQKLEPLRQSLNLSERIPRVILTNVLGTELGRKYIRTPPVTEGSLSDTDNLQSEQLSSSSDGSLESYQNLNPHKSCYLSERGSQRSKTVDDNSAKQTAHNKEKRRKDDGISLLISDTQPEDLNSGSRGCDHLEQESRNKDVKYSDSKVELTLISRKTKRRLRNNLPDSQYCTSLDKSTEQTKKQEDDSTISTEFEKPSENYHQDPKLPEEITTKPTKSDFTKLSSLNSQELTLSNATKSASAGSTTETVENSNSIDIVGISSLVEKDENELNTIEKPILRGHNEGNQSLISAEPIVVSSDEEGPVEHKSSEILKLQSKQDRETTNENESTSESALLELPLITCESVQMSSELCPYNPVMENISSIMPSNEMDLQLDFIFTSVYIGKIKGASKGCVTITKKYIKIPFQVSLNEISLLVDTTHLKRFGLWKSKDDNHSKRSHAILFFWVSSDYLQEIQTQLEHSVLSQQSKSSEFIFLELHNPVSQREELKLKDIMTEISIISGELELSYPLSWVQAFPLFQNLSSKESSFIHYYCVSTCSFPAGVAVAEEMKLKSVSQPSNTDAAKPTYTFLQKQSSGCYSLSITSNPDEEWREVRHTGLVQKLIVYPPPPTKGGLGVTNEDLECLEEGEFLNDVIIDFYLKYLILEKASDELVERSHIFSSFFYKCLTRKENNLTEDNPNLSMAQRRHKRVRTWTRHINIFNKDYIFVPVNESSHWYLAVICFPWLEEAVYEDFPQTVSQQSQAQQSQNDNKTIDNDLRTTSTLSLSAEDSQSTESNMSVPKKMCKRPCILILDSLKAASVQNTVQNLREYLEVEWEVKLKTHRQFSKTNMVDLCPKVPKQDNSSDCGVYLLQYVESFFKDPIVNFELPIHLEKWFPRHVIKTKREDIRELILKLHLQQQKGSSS

[2] = target: T2, Sentrin-specific protease 6 (Homo sapiens, UniProt Q9GZR1); format: functional;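 further: Luminescence-based dose-response confirmatory assay of SENP6 inhibition, following up an ultra-high-throughput screen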
T2 sequence (Q9GZR1 whole entry): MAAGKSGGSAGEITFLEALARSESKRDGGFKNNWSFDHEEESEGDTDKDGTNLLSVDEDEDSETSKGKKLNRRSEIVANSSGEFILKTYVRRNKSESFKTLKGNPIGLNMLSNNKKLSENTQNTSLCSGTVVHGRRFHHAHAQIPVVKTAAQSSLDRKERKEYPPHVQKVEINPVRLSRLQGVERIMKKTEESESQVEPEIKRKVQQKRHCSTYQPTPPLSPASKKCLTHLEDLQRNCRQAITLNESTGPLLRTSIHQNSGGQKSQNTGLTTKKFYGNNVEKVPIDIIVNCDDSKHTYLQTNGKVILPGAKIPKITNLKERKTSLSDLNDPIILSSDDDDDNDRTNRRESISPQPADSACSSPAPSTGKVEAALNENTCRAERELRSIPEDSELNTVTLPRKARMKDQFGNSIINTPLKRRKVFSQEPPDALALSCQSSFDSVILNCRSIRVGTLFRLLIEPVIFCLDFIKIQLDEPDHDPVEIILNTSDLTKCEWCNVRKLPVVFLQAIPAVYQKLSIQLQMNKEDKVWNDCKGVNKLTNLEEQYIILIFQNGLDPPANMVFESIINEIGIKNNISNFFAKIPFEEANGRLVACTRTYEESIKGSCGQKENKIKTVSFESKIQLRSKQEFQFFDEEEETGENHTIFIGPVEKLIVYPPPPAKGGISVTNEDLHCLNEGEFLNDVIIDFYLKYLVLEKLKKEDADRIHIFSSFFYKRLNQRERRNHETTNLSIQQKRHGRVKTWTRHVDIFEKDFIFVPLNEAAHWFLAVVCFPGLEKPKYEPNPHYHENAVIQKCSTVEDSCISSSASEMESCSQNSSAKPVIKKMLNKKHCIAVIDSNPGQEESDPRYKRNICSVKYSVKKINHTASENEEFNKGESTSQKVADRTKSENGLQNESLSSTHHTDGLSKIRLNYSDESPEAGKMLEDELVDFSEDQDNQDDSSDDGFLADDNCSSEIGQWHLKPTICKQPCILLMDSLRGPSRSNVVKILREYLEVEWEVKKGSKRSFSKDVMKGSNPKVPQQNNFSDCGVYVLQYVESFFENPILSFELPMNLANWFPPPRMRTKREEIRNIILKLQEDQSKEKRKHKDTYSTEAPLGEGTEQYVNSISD

[3] = target: T3, Sentrin-specific protease 8 (Homo sapiens, UniProt Q96LD8); format: functional;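 further: luminescence read-out of SENP8 inhibition, dose-response confirmation following an ultra-high-throughput screen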
T3 sequence (Q96LD8 whole entry): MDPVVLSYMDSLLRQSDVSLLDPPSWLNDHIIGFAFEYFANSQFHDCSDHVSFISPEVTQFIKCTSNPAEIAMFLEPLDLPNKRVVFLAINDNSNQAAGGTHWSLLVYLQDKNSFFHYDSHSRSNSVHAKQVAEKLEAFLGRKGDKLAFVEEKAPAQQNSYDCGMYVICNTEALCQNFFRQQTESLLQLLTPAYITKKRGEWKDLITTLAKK

[4] = target: T4, Caspase-3 (Homo sapiens, UniProt P42574); format: functional;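 further: Dose-response selectivity test against caspase-3 for candidate inhibitors of sentrin-specific proteases (SENPs)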
T4 sequence (P42574 whole entry): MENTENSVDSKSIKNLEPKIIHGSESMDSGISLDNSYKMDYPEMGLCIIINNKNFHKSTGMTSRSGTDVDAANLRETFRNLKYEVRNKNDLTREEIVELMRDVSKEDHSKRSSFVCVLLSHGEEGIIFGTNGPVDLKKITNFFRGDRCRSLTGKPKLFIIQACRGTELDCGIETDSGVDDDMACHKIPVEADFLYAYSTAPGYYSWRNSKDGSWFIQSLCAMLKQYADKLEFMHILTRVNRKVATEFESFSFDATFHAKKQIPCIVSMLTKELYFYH

[5] = target: T5, Adenosylmethionine-8-amino-7-oxononanoate aminotransferase (Mycobacterium tuberculosis, UniProt P9WQ81); experiment: Mycobacterium tuberculosis BioA enzyme inhibitor Measured in Biochemical System Using Plate Reader - 2163-02_Inhibitor_Dose_CherryPick_Activity.; format: functional, Mycobacterium tuberculosis UT205
T5 sequence (P9WQ81 whole entry): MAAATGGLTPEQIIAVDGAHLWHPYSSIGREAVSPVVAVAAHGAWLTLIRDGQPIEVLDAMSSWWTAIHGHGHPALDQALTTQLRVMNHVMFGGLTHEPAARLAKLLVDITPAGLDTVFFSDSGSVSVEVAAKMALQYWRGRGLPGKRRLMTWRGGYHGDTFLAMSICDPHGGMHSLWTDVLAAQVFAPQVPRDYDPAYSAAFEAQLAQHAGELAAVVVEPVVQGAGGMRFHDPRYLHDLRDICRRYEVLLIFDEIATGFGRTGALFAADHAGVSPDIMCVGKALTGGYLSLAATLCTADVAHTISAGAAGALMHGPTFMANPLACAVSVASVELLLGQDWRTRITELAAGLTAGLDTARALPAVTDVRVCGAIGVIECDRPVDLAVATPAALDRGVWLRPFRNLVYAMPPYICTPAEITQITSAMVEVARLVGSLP

[6] = target: 72 kDa type IV collagenase (Homo sapiens, UniProt P08253); experiment: Dose Response validation of uHTS RPN11 inhibitor hits using a MMP-2 Fluorescence assay.; format: functional
[7] = target: 26S proteasome non-ATPase regulatory subunit 14 (Homo sapiens, UniProt O00487); experiment: inhibition of proteasome subunit RPN11 – biochemical, fluorescence polarization, uHTS hits, confirmation (AID 602368); format: functional
[8] = target: Prothrombin (Bos taurus, UniProt P00735); experiment: thrombin protease inhibitors – biochemical, fluorescence polarization, uHTS hits, dose response (AID 602369); format: functional
[9] = Trypanosoma cruzi growth suppression in host cells – NIH3T3 host cells, beta-gal luminescence, confirmation (AID 2044); format: functional, cell-based;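 further: intracellular parasites grown in NIH/3T3 mouse fibroblasts as host cells; luminescent beta-galactosidase reporter signal from transgenic T. cruzi replicating inside host cells; inhibitors lower the luminescence signal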
[10] = NIH3T3 cell viability loss – ATP luminescence, mouse fibroblasts, counter-screen, dose response (AID 2010); format: functional, cell-based;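 further: cells exposed to compound for about 90 hours before reading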
[11] = target: T6, Low molecular weight phosphotyrosine protein phosphatase (Homo sapiens, UniProt P24666); format: functional; conditions: read-out: IC50_Mean;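 further: Dose-response confirmation assay measuring inhibition of LMPTP enzyme activity by fluorescence intensity read-out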
T6 sequence (P24666 whole entry): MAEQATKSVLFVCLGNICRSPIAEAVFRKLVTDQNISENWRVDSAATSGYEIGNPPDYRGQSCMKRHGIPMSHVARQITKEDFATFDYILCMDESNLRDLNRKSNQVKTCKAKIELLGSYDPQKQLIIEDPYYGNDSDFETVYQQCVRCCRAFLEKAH

[12] = target: T7, Carboxy-terminal domain RNA polymerase II polypeptide A small phosphatase 1 (Homo sapiens, UniProt Q9GZU7); experiment: CTDSP1 inhibitors, concentration-response, biochemical, absorbance readout, ultra-high-throughput screen actives (AID 540297); format: functional
T7 sequence (Q9GZU7 whole entry): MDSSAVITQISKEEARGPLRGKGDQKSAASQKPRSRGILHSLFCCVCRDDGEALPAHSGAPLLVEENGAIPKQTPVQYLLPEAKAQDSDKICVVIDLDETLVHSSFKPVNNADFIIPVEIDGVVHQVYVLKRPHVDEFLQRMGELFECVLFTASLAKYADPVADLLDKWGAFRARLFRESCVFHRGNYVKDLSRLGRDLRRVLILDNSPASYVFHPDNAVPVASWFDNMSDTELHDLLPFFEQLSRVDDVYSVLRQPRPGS

[13] = target: T8, Long-chain-fatty-acid--AMP ligase FadD28 (Mycobacterium tuberculosis, UniProt P9WQ59); experiment: Fluorescence polarization aasay to screen for inhibitors that compete for the binding of FadD28 to a bisubstrate Measured in Biochemical System Using Plate Reader - 2147-01_Inhibitor_Dose_CherryPick_Activity.; format: functional, Mycobacterium tuberculosis H37Rv
T8 sequence (P9WQ59 whole entry): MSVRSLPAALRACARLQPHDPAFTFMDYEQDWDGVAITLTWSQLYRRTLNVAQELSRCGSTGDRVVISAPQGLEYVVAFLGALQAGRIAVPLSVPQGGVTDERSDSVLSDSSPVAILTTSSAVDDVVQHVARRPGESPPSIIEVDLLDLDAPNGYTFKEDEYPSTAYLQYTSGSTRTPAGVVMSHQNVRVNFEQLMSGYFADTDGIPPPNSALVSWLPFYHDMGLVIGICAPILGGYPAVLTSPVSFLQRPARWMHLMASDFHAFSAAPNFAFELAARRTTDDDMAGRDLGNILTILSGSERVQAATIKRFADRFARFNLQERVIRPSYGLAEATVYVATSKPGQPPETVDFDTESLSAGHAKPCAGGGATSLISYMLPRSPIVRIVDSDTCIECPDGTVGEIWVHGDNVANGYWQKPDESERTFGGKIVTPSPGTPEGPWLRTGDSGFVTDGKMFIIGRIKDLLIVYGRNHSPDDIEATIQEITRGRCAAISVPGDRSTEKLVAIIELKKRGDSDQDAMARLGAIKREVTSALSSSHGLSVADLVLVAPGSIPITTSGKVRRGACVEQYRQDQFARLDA

[14] = target: DNA (cytosine-5)-methyltransferase 1 (Homo sapiens, UniProt P26358); experiment: inhibition of DNA methylation by DNMT1 – biochemical, fluorescent molecular beacon, confirmation (AID 602386); format: functional
[15] = target: Beta Lactamase (Pseudomonas aeruginosa, UniProt Q932Y6); experiment: BLA reporter interference, concentration series – BLA reporter cells, FRET fluorescence, artefact control for NOD2-RIPK2 interaction inhibitor project, dose response (AID 651552); format: functional, cell-based
[16] = Fluorescence-based cell-based high throughput dose response assay for inhibitors of the interaction of nucleotide-binding oligomerization domain containing 2 (NOD2) and the receptor-interacting serine-threonine kinase 2 (RIPK2).; format: functional; conditions: Homo sapiens

Sequence of 72 kDa type IV collagenase (P08253 whole entry): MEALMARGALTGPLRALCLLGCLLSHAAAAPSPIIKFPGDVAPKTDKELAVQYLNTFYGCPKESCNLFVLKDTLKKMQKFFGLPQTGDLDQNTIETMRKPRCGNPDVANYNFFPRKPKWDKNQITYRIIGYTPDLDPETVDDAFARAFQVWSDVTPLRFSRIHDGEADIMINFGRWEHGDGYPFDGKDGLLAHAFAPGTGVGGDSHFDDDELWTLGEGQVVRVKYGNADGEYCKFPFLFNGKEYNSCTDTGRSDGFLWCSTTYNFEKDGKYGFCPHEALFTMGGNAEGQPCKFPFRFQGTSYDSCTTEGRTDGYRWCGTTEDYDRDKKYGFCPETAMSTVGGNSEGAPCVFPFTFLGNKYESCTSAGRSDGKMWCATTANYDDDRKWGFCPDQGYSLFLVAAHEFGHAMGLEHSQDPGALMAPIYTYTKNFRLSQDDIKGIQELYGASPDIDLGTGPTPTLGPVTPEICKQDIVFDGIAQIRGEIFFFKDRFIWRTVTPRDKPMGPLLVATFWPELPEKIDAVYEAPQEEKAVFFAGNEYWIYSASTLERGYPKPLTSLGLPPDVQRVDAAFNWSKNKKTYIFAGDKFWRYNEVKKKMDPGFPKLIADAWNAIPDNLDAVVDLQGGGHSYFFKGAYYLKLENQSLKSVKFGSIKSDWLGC
Sequence of 26S proteasome non-ATPase regulatory subunit 14 (O00487 whole entry): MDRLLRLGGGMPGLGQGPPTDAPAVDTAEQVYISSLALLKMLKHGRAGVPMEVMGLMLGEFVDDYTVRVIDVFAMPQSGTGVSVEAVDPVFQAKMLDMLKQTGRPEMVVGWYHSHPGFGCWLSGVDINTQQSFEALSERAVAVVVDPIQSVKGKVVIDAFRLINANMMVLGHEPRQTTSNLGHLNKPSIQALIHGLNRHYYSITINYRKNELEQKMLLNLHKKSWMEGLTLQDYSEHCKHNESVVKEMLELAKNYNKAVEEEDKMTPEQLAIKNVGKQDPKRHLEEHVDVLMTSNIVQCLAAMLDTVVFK
Sequence of DNA (cytosine-5)-methyltransferase 1 (P26358 whole entry): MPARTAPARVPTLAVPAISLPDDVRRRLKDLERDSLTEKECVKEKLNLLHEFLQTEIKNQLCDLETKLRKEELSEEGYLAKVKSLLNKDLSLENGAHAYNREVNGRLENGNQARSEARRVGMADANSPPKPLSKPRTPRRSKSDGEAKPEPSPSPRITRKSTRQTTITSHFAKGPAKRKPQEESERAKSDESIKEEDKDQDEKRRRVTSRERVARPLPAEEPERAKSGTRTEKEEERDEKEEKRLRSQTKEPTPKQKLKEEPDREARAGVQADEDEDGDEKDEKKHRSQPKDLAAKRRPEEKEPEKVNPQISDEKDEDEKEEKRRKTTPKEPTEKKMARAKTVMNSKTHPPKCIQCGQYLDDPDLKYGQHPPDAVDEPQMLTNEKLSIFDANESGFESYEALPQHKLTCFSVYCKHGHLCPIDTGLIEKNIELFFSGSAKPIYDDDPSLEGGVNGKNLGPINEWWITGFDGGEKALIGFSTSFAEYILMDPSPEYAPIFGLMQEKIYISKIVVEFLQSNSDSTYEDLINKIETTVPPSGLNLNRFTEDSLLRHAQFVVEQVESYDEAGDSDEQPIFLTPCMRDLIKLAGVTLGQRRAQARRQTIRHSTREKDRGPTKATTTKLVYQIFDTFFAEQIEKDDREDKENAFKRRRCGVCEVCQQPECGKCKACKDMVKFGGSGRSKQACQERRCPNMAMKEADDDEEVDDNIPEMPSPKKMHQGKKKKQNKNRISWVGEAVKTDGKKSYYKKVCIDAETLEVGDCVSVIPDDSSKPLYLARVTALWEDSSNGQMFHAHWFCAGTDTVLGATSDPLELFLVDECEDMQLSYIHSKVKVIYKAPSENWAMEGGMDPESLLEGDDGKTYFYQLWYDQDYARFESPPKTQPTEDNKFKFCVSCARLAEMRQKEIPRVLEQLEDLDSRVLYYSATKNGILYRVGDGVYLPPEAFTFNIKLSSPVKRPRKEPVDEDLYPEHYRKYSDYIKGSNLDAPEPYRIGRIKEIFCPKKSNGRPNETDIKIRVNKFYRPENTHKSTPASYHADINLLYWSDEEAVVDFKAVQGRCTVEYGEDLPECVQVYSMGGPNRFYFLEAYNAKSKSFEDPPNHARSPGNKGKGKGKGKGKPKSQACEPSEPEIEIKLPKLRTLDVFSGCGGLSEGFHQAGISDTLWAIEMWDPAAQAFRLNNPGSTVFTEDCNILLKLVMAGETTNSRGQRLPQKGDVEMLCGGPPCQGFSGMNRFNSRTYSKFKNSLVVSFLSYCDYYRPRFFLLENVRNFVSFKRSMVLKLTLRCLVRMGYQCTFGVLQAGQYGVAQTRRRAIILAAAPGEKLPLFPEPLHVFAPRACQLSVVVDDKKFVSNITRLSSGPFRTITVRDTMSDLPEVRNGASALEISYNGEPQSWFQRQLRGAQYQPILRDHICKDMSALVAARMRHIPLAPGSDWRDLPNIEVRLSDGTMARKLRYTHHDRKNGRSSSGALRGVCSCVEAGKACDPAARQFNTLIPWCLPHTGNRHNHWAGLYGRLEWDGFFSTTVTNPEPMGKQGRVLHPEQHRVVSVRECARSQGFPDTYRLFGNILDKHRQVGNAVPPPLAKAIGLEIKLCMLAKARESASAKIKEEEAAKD
Sequence of Beta Lactamase (Q932Y6 whole entry, the tested form may be a part): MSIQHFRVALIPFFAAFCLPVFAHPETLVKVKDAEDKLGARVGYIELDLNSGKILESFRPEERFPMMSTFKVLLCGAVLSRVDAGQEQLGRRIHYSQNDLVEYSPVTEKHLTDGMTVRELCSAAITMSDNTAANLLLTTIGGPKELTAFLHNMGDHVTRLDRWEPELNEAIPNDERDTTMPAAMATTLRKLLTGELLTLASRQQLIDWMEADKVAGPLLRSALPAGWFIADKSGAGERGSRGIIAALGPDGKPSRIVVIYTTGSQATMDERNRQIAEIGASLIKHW

O=[N+]([O-])c1ccc(N/N=N/c2ccccc2)cc1
IC50 [1]: 9.64 µM (active) | IC50 [2]: 46.5 µM (active) | IC50 [3]: 75.3 µM (active) | IC50 [4]: 45 µM (active)

COc1cc(-c2nnc(S)n2-c2cccc(C(F)(F)F)c2)cc(OC)c1OC
AC50 [5]: 10.6 µM (active)

Cc1ccsc1/C=N/n1c(S)nnc1-c1cc(-c2ccccc2)[nH]n1
IC50 [6]: > 100 µM (inactive) | IC50 [7]: 21.1 µM (active) | IC50 [8]: 77.2 µM (active)

C=CCn1cc(/C=N/NC(=O)COc2cccc3cccnc23)c2ccccc21
IC50 [6]: > 100 µM (inactive) | IC50 [7]: 27.8 µM (active) | IC50 [8]: 39 µM (active)

O=C(Nc1ncc2c(n1)CC(c1ccccc1)CC2=O)c1ccco1 (stereo not given)
AC50 [5]: 0.201 µM (active)

O=C(Nc1ccc(Cl)c(-c2nc3ccccc3[nH]2)c1)c1cccnc1
AC50 [5]: 0.788 µM (active)

C/N=c1\scc(-c2cc(OC)ccc2OC)n1/N=C/c1c(C)[nH]c2ccccc12
EC50 [9]: 1.64 µM (active) | IC50 [6]: > 100 µM (inactive) | IC50 [7]: 23.8 µM (active) | IC50 [8]: 21.1 µM (active) | EC50 [10]: > 60 µM (not active)

O=C(NCc1cccc(CNC(=O)C(=O)NCc2ccco2)c1)C(=O)NCc1ccco1
IC50 [11]: 6.32 µM (active) | IC50 [12]: > 80 µM (inactive)

O=C(O)C(c1ccccc1)N1C(=O)/C(=C\c2ccc(-c3ccccc3Cl)o2)SC1=S (stereo not given)
AC50 [13]: 15.6 µM (active) | IC50 [14]: 4.27 µM (active)

CCOC(=O)c1ccc(Nc2cnc3ccccc3n2)cc1
IC50 [1]: 6.72 µM (active) | IC50 [2]: > 100 µM (inactive) | IC50 [3]: > 100 µM (inactive) | IC50 [4]: 64.6 µM (active)

O=C(CN1CCN(S(=O)(=O)c2ccc(Br)cc2)CC1)N/N=C/c1ccc(Cl)c([N+](=O)[O-])c1
IC50 [15]: 48.7 µM (inactive) | IC50 [16]: 1.83 µM (active)

N=C(N)NCCCS(=O)(=O)Nc1ccc(Nc2c3ccccc3nc3cc([N+](=O)[O-])ccc23)cc1
IC50 [14]: 6.83 µM (active) | IC50 [11]: 57 µM (inactive)
